Source: ChEMBL document CHEMBL1157668, “Synthesis and structure-activity relationships of N-benzyl-N-(X-2-hydroxybenzyl)-N'-phenylureas and thioureas as antitumor agents” (Bioorg Med Chem, 2010)

Tests used:
[1] = test system: MCF7; experiment: cells; conditions: Homo sapiens, MCF7, 48 h
[2] = molecular target: Epidermal growth factor receptor (Homo sapiens, UniProt P00533); experiment: biochemical
Description: Inhibition of cloned EGFR autophosphorylation expressed in baculovirus-infected Sf9 cells by solid-phase ELISA

[3] = molecular target: Receptor tyrosine-protein kinase erbB-2 (Homo sapiens, UniProt P04626); experiment: biochemical
Receptor tyrosine-protein kinase erbB-2, sequence (P04626 whole entry): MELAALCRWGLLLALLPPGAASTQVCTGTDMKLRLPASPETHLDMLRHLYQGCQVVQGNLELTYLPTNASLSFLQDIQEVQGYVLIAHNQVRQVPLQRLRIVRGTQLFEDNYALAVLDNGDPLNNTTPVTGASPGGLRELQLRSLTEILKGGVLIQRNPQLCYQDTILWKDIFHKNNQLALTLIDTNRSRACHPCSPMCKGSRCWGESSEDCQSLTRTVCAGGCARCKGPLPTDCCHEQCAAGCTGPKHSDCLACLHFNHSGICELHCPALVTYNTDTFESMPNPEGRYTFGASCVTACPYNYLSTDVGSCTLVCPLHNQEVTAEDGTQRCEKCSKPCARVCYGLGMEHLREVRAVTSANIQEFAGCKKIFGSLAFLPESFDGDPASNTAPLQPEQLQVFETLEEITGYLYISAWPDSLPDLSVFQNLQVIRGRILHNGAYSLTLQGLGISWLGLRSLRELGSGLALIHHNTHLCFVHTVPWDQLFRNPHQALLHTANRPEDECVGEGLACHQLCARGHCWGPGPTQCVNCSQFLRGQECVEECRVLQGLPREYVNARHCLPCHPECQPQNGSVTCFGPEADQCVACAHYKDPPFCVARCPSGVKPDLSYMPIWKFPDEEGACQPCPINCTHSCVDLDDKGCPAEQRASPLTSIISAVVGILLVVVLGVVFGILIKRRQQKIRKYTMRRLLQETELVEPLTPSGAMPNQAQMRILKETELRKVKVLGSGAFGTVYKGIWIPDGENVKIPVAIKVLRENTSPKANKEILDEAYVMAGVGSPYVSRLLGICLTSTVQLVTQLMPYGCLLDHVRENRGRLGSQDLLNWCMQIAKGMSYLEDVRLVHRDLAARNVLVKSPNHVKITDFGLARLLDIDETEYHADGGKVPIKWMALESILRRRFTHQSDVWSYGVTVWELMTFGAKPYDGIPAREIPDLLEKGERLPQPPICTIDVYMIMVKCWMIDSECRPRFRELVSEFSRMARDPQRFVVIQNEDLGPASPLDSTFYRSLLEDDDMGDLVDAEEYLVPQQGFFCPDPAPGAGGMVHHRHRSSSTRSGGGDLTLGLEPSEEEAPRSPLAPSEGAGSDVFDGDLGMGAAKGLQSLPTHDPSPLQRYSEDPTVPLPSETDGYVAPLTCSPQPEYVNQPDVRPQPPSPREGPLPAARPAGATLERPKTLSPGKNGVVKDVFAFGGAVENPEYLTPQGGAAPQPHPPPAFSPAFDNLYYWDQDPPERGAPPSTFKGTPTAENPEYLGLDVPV
Description: Inhibition of human cloned HER2 autophosphorylation expressed in baculovirus-infected Sf9 cells by solid-phase ELISA

Epidermal growth factor receptor, sequence (P00533 whole entry): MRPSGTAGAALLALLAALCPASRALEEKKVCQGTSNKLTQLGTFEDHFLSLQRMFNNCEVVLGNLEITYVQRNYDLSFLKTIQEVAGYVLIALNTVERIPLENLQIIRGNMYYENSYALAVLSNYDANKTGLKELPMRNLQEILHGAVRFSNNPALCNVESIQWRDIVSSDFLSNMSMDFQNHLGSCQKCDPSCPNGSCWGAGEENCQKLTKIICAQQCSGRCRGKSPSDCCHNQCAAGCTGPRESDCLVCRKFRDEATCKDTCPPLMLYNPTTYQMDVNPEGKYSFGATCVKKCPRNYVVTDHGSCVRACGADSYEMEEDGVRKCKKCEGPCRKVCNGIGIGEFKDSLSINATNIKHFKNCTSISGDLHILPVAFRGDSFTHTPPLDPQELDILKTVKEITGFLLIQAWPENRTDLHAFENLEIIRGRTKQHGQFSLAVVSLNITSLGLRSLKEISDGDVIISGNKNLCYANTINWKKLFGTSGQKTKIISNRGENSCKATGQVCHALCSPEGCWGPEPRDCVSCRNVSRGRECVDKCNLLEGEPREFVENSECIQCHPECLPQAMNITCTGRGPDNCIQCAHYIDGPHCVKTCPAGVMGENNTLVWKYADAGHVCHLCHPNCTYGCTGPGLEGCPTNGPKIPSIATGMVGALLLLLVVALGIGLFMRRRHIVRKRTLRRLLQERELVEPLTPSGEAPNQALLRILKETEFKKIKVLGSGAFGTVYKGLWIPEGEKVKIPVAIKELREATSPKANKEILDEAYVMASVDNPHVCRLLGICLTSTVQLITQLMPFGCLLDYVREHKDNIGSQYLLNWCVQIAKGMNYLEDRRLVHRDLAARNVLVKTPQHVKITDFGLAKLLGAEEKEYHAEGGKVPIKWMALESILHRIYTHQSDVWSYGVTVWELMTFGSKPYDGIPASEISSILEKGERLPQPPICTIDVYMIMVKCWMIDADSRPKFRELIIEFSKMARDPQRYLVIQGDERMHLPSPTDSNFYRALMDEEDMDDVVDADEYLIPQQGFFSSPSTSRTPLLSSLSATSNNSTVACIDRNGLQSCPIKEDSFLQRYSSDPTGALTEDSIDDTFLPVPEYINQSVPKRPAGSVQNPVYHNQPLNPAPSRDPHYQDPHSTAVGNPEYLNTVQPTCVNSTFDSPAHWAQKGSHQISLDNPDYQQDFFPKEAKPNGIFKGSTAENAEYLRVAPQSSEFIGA

Row | IC50 [1] [µM] | IC50 [2] [µM] | IC50 [3] [µM] | Compound
1 | 1.7 | 1.76 | 6.73 | Oc1c(Br)cc(Br)cc1CN(Cc1ccc(F)cc1)C(=S)Nc1ccccc1
2 | 5.5 | 21.7 | 38.2 | Cc1cccc(CN(Cc2ccc(F)cc2)C(=O)Nc2ccccc2)c1O
3 | 9.1 | 36.9 | > 50 | CCCCN(Cc1cccc(Br)c1O)C(=O)Nc1ccccc1
4 | 0.06 | 0.12 | 0.66 | Oc1ccc(CN(Cc2cccc(Br)c2O)C(=S)Nc2ccccc2)cc1
5 | 16.7 | 31.9 | > 50 | CCCCN(Cc1cc(Br)cc(Br)c1O)C(=S)Nc1ccccc1
6 | 10.5 | 19.4 | 37.8 | Cc1cc(C)c(O)c(CN(Cc2ccc(F)cc2)C(=S)Nc2ccccc2)c1
7 | 8.5 | 9.26 | 16.1 | Cc1cc(C)c(O)c(CN(Cc2ccc(O)cc2)C(=O)Nc2ccccc2)c1
8 | 30 | > 50 | > 50 | CCCCN(Cc1cc(Cl)cc(Cl)c1O)C(=O)Nc1ccccc1
9 | 9.3 | 32.1 | > 50 | CCCCN(Cc1cccc(Cl)c1O)C(=O)Nc1ccccc1
10 | 14.2 | 22 | 39.5 | CCCCN(Cc1cccc(Br)c1O)C(=S)Nc1ccccc1
11 | 2.8 | 4.15 | 9.64 | O=C(Nc1ccccc1)N(Cc1ccc(F)cc1)Cc1cc(Cl)cc(Cl)c1O
12 | 7.4 | 18.1 | 32.5 | CCCCN(Cc1cccc(Cl)c1O)C(=S)Nc1ccccc1
13 | 0.73 | 0.98 | 1.87 | Oc1c(Br)cccc1CN(Cc1ccc(F)cc1)C(=S)Nc1ccccc1
14 | 3.8 | 8.54 | 15.7 | Cc1cccc(CN(Cc2ccc(F)cc2)C(=S)Nc2ccccc2)c1O
15 | 1.4 | 2.24 | 5.17 | O=C(Nc1ccccc1)N(Cc1ccc(F)cc1)Cc1cccc(Br)c1O
16 | 12.8 | 24.6 | 39.8 | CCCCN(Cc1cc(Cl)cc(Cl)c1O)C(=S)Nc1ccccc1
17 | 0.22 | 0.56 | 1.23 | Oc1ccc(CN(Cc2cc(Cl)cc(Cl)c2O)C(=S)Nc2ccccc2)cc1

Row | IC50 [1] [µM] | IC50 [2] [µM] | IC50 [3] [µM] | Compound
18 | 1.1 | 1.98 | 3.45 | O=C(Nc1ccccc1)N(Cc1ccc(F)cc1)Cc1cccc(Cl)c1O
19 | 0.36 | 0.87 | 2.24 | Oc1ccc(CN(Cc2cc(Br)cc(Br)c2O)C(=S)Nc2ccccc2)cc1
20 | 1.2 | – | 7.13 | Cc1cccc(CN(Cc2ccc(O)cc2)C(=S)Nc2ccccc2)c1O
21 | 3.6 | 4.68 | 12.4 | O=C(Nc1ccccc1)N(Cc1ccc(F)cc1)Cc1cc(Br)cc(Br)c1O
22 | 0.25 | 1.07 | 2.66 | O=C(Nc1ccccc1)N(Cc1ccc(O)cc1)Cc1cccc(Br)c1O
23 | 1.1 | 1.86 | 2.21 | O=C(Nc1ccccc1)N(Cc1ccc(O)cc1)Cc1cc(Cl)cc(Cl)c1O
24 | 2.6 | 5.83 | 9.47 | Cc1cc(C)c(O)c(CN(Cc2ccc(O)cc2)C(=S)Nc2ccccc2)c1
25 | 35 | > 50 | > 50 | CCCCN(Cc1cc(Br)cc(Br)c1O)C(=O)Nc1ccccc1
26 | 6.6 | 27.4 | > 50 | Cc1cc(C)c(O)c(CN(Cc2ccc(F)cc2)C(=O)Nc2ccccc2)c1
27 | 34.1 | > 50 | > 50 | Cc1cc(C)c(O)c(CN(Cc2ccccc2)C(=S)Nc2ccccc2)c1
28 | 0.52 | 0.67 | 1.41 | Oc1c(Cl)cccc1CN(Cc1ccc(F)cc1)C(=S)Nc1ccccc1
29 | 26 | > 50 | > 50 | CCCCN(Cc1cc(C)cc(C)c1O)C(=O)Nc1ccccc1
30 | 1.1 | 1.34 | 6.49 | Oc1c(Cl)cc(Cl)cc1CN(Cc1ccc(F)cc1)C(=S)Nc1ccccc1
31 | 52 | > 50 | > 50 | CCCCN(Cc1cccc(C)c1O)C(=O)Nc1ccccc1
32 | 1.32 | 1.12 | 4.53 | O=C(Nc1ccccc1)N(Cc1ccc(O)cc1)Cc1cc(Br)cc(Br)c1O
33 | 5.3 | 7.51 | 18.4 | Cc1cccc(CN(Cc2ccc(O)cc2)C(=O)Nc2ccccc2)c1O
34 | 23.6 | 43.2 | > 50 | CCCCN(Cc1cccc(C)c1O)C(=S)Nc1ccccc1

Row | Compound | IC50 [1] [µM] | IC50 [2] [µM] | IC50 [3] [µM]
35 | O=C(Nc1ccccc1)N(Cc1ccc(O)cc1)Cc1cccc(Cl)c1O | 0.19 | 0.96 | 2.27
36 | Oc1ccc(CN(Cc2cccc(Cl)c2O)C(=S)Nc2ccccc2)cc1 | 0.03 | 0.08 | 0.35
